Assay results taken from Sander's compilation of Henry's law constants (doi:10.1021/ac00070a008).

Assay: Henry solubility constant Hcp at 298.15 K (mol/(m3 Pa))
Conditions: reference: Li et al. (1993)
For CC(C)OC(C)C [diisopropyl ether], the “Henry solubility constant Hcp” value was 0.0044.
In the case of CCCCCl [1-chlorobutane], the “Henry solubility constant Hcp” value is reported as 0.00053.
In the case of CCCc1ccccc1 [propylbenzene], the “Henry solubility constant Hcp” value is reported as 0.00091.
In the case of CC(C)c1ccccc1 [(2-propyl)-benzene], the “Henry solubility constant Hcp” value is reported as 0.00089.
For ClC=C(Cl)Cl [trichloroethene], the “Henry solubility constant Hcp” value was 0.001.
For Cc1cccc(C)c1 [1,3-dimethylbenzene], the “Henry solubility constant Hcp” value was 0.0015.
In the case of CCc1ccccc1 [ethylbenzene], the “Henry solubility constant Hcp” value is reported as 0.0013.
In the case of Cc1ccccc1C [1,2-dimethylbenzene], the “Henry solubility constant Hcp” value is reported as 0.0021.
For CCCCCCl [1-chloropentane], the “Henry solubility constant Hcp” value was 0.00042.
With ClC(Cl)=C(Cl)Cl [tetrachloroethene] the “Henry solubility constant Hcp” value was 0.00063.
With CCCCCCCl [1-chlorohexane] the “Henry solubility constant Hcp” value was 0.00031.
With CC(Cl)(Cl)Cl [1,1,1-trichloroethane] the “Henry solubility constant Hcp” value was 0.00057.
For Cc1cc(C)cc(C)c1 [1,3,5-trimethylbenzene], the “Henry solubility constant Hcp” value was 0.0014.
For ClCCl [dichloromethane], the “Henry solubility constant Hcp” value was 0.0038.
In the case of CCCBr [1-bromopropane], the “Henry solubility constant Hcp” value is reported as 0.0011.
For CCC(C)Br (stereo unspecified) [2-bromobutane], the “Henry solubility constant Hcp” value was 0.00077.
For c1ccccc1 [benzene], the “Henry solubility constant Hcp” value was 0.0018.
In the case of CC(C)Cl [2-chloropropane], the “Henry solubility constant Hcp” value is reported as 0.00054.
For Cc1ccc(C)cc1 [1,4-dimethylbenzene], the “Henry solubility constant Hcp” value was 0.0014.
With CCCCc1ccccc1 [butylbenzene] the “Henry solubility constant Hcp” value was 0.00067.
For CCCI [1-iodopropane], the “Henry solubility constant Hcp” value was 0.0011.
In the case of CC(C)Br [2-bromopropane], the “Henry solubility constant Hcp” value is reported as 0.00084.
With Cc1ccccc1 [methylbenzene] the “Henry solubility constant Hcp” value was 0.0016.
In the case of CCBr [bromoethane], the “Henry solubility constant Hcp” value is reported as 0.0013.
In the case of CCCOCCC [dipropyl ether], the “Henry solubility constant Hcp” value is reported as 0.0029.
In the case of CCI [iodoethane], the “Henry solubility constant Hcp” value is reported as 0.0014.
